Data taken from ChEMBL document CHEMBL1134115, “Antimycobacterial activity of 9-sulfonylated/sulfenylated-6-mercaptopurine derivatives” (Bioorg Med Chem Lett, 2001).
In brackets after ≈: the same amount, converted by molar mass.

Assays:
Mycobacterium avium = assay: Percent inhibition against Mycobacterium avium at the dose of 12.5 uM using Microplate Alamar Blue Assay (MABA) assay; format: functional
[1] = tested on: Mycobacterium tuberculosis; assay: Antimycobacterial activity against Mycobacterium tuberculosis H37Rv using Microplate Alamar Blue Assay (MABA) assay; format: functional
Vero = assay: Cytotoxicity determined in VERO cells at concentrations less than or equal to […] or 10 times the MIC against Mycobacterium tuberculosis H37Rv.; format: functional, cell-based; settings: Chlorocebus sabaeus
[2] = Selectivity index (IC50/MIC) was determined; format: functional
[3] = tested on: Mycobacterium tuberculosis; assay: Antimycobacterial activity against Mycobacterium tuberculosis wild type (WT, H37Rv); format: functional
[4] = tested on: Mycobacterium tuberculosis; assay: Antimycobacterial activity against Mycobacterium tuberculosis Erdman using Microplate Alamar Blue Assay (MABA) assay; format: functional

With `O=[N+]([O-])c1ccccc1Sn1cnc2c(S)ncnc21` the inhibition at 12.5 µM (Mycobacterium avium) was 75%, the MIC [1] was 0.78 µg/mL (≈ 2.55 µM) and the IC50 (Vero) was 5 µg/mL (≈ 16.4 µM). The Selectivity index [2] was 6.4 SI.
`Nc1ccc(S(=O)(=O)n2cnc3c(S)ncnc32)cc1` gave an inhibition at 12.5 µM (Mycobacterium avium) of 63%, an MIC [1] of 0.78 µg/mL (≈ 2.54 µM) and an IC50 (Vero) greater than 100 µg/mL. The Selectivity index [2] was greater than 128 SI.
Molecule `Nc1cccc(S(=O)(=O)n2cnc3c(S)ncnc32)c1` has an inhibition at 12.5 µM (Mycobacterium avium) of 68%, an MIC [1] of 3.13 µg/mL (≈ 10.2 µM) and an MIC [3] of 3.13 µg/mL (≈ 10.2 µM). For the same molecule, the IC50 (Vero) was 468 µg/mL (≈ 1520 µM) and the Selectivity index [2] was 150 SI.
For `CO[C@H]1/C=C/O[C@@]2(C)Oc3c(C)c(O)c4c(O)c(c(/C=N/N5CCN(C)CC5)c(O)c4c3C2=O)NC(=O)/C(C)=C\C=C\[C@H](C)[C@H](O)[C@@H](C)[C@@H](O)[C@@H](C)[C@H](OC(C)=O)[C@@H]1C` [RIFAMPIN], the MIC [1] was 0.125 µg/mL (≈ 0.152 µM), the MIC [3] was 0.125 µg/mL (≈ 0.152 µM) and the IC50 (Vero) was greater than 1000 µg/mL. For the same molecule, the Selectivity index [2] was greater than 8000 SI.
`O=[N+]([O-])c1ccc(Sn2cnc3c(S)ncnc32)cc1` showed an inhibition at 12.5 µM (Mycobacterium avium) of 79%, an MIC [4] of 0.78 µg/mL (≈ 2.55 µM) and an MIC [3] of 0.78 µg/mL (≈ 2.55 µM). The IC50 (Vero) was 45 µg/mL (≈ 147 µM) and the Selectivity index [2] was 58 SI.
`CN(C)S(=O)(=O)n1cnc2c(=S)[nH]cnc21` showed an inhibition at 12.5 µM (Mycobacterium avium) of 40%, an MIC [1] of 0.39 µg/mL (≈ 1.5 µM) and an MIC [3] of 0.39 µg/mL (≈ 1.5 µM). The IC50 (Vero) was greater than 200 µg/mL and the Selectivity index [2] was greater than 513 SI.
`O=[N+]([O-])c1ccccc1S(=O)(=O)n1cnc2c(S)ncnc21` showed an inhibition at 12.5 µM (Mycobacterium avium) of 50%, an MIC [1] of 1.56 µg/mL (≈ 4.62 µM) and an IC50 (Vero) of 64 µg/mL (≈ 190 µM). It also gave a Selectivity index [2] of 40 SI.
Work on `Cc1ccc(S(=O)(=O)n2cnc3c(S)ncnc32)cc1` yielded an inhibition at 12.5 µM (Mycobacterium avium) of 73%, an MIC [1] of 1.6 µg/mL (≈ 5.22 µM) and an IC50 (Vero) of 4 µg/mL (≈ 13.1 µM). The Selectivity index [2] was 2.5 SI.
`O=S(=O)(c1ccc(Br)cc1)n1cnc2c(S)ncnc21` gave an inhibition at 12.5 µM (Mycobacterium avium) of 81%, an MIC [1] of 0.78 µg/mL (≈ 2.1 µM) and an IC50 (Vero) of 2 µg/mL (≈ 5.39 µM). It also gave a Selectivity index [2] of 2.6 SI.
For `O=S(=O)(c1ccc(F)cc1)n1cnc2c(S)ncnc21`, the inhibition at 12.5 µM (Mycobacterium avium) was 70%, the MIC [1] was 3.39 µg/mL (≈ 10.9 µM) and the IC50 (Vero) was 1 µg/mL (≈ 3.22 µM). For the same molecule, the Selectivity index [2] was 0.3 SI.
In the case of `CC(=O)Nc1ccc(S(=O)(=O)n2cnc3c(S)ncnc32)cc1`, the inhibition at 12.5 µM (Mycobacterium avium) is reported as 57%, the MIC [1] is reported as 0.78 µg/mL (≈ 2.23 µM) and the MIC [3] is reported as 0.78 µg/mL (≈ 2.23 µM). For the same molecule, the IC50 (Vero) was greater than 200 µg/mL and the Selectivity index [2] was greater than 256 SI.
In the case of `O=S(=O)(c1ccc(Cl)cc1)n1cnc2c(S)ncnc21`, the inhibition at 12.5 µM (Mycobacterium avium) is reported as 60%, the MIC [1] is reported as 3.13 µg/mL (≈ 9.58 µM) and the MIC [3] is reported as 3.13 µg/mL (≈ 9.58 µM). The IC50 (Vero) was 1 µg/mL (≈ 3.06 µM) and the Selectivity index [2] was 0.32 SI.
